SMILES strings stand for the structures. ≈ marks a conversion by molar mass, not a printed value.

The test system of series [1] is Perdix sp. The following applies: acute; oral; unspecified; mortality.
The test system of series [2] is Phasianus sp. The following applies: acute; oral; unspecified; mortality.
Series [3] relates to Rattus norvegicus.
For series [4], the system named is Colinus virginianus. The note with it: acute; oral; diet; mortality.
Series [5] relates to Anas platyrhynchos. The following applies: for LC50: short-term, oral, feed, mortality.
Series [6] relates to Lepomis macrochirus. The note with it: acute; duration: 96 hours; mortality.
For series [7], the system named is Oncorhynchus mykiss. The note with it: acute; duration: 96 hours; mortality.
The subject of series [8] is Canidae. The following applies: oral, Dog Other.
The subject of series [9] is Daphnia magna. The note with it: chronic/long-term; duration: 21 days; reproduction.
Series [10] has as its system Pimephales promelas. The note with it: chronic/long-term; duration: 31 days; growth.
In series [11] the test system is Apis mellifera. The following applies: acute; duration: 48 hours; dermal; mortality.
Series [12] concerns Tagia sp.
Series [13] deals with Coturnix japonica.
Series [14] relates to Chalcophaps sp. The following applies: acute; oral; unspecified; mortality.
Series [15] deals with Encarsia formosa. The note with it: not reported; mortality.

In the case of `CCCCc1c(C)nc(NCC)[nH]c1=O` [Ethirimol], the LD50 in series [1] and in series [2] was greater than 3000 mg/kg-day each time. Besides, the NOAEL in series [3] (acute, neurology) is 4000 mg/kg-day; in series [3] (chronic, duration: 2 years, clinical signs), 3.5 mg/kg-day; in series [3] (reproduction developmental, body weight) it was 5 mg/kg-day. The compound also gave an NOEL in series [3] (chronic, mortality) of 500 mg/kg-day. The LC50 in [4] is greater than 3380 mg/kg-day; in series [5] it was greater than 1960 mg/kg-day. In series [5] (reproductive), this compound returned an NOEC of 58 mg/kg-day.

Take `CCCCc1c(C)nc(NCC)nc1OS(=O)(=O)N(C)C` [Bupirimate]: the LD50 was 4000 mg/kg-day in series [3] (acute, oral, mortality); greater than 50 µg/piece in series [11]; greater than 5000 mg/kg-day in [13] (acute, oral, mortality); greater than 2750 mg/kg-day in series [14]. The LC50 in series [6] is 1 µg/mL (≈ 3.16 µM); in [7], 1 µg/mL (≈ 3.16 µM); in [4], greater than 2580 mg/kg-day; in [5] it was greater than 2090 mg/kg-day; in series [12] (acute, duration: 14 days, mortality) it was greater than 1000 mg/kg. The NOAEL in [8] (chronic, duration: 2 years) was found to be 5 mg/kg-day; in [8] (subchronic, duration: 90 days) it was 15 mg/kg-day. The NOEC in series [9] is 0.56 mg/L; in series [10], 0.1 mg/L; in series [12] (chronic/long-term) it was 7.3 mg/kg; in series [13] (reproduction developmental), no less than 98 mg/kg-day. For the same compound, the LEL in series [15] amounted to 750 g/ha.

For the origin of these results see EPA's ToxValDB 9.5 (doi:10.2903/j.efsa.2010.1786).
